Measurements from patent US8440701B2, “Trisubstituted 1,2,4 triazoles” (Janssen Pharmaceutica NV, priority 2007, dated 2013).
Structures can show the parent of a compound that is named as a salt.

What was measured:
hα7-wt nAChR [1] = target: T1, hα7-wt nAChR (Homo sapiens, UniProt P36544); test: Ca2+ flux imaging (FDSS), potentiation of choline response; type: cell-based; settings: hα7-wt nAChR-expressing GH4C1 cells; potentiation of 100 μM choline; compounds 0.01 μM to 30 μM
T1 construct: expressed in transfected cells; host or cells: GH4C1 cells (recombinant, stably over-expressing)
T1 sequence (P36544 23-502): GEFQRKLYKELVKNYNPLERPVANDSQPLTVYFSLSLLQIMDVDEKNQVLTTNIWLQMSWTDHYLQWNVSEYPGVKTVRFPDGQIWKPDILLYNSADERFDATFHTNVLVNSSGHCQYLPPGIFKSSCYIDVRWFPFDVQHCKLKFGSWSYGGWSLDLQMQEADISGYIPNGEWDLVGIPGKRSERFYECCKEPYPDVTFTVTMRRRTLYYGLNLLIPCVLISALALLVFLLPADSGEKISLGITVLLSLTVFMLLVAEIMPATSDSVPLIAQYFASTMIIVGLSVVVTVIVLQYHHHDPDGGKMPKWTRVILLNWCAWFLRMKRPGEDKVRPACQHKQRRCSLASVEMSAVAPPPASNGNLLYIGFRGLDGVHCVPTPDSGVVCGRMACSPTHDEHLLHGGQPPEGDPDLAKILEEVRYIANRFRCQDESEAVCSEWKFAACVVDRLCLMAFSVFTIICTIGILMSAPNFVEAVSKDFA
Method: Ca^2+ Flux Imaging (FDSS)
• Hanks buffered saline solution (HBSS, Invitrogen, Belgium), supplemented with 10 mM HEPES (Invitrogen, Belgium), CaCl2 to a final concentration of 5 mM, 0.1% Bovine serum albumin (Sigma-Aldrich NV, Belgium). b) Calcium-Sensitive Dye—Fluo-4AM • Fluo-4AM (Molecular Probes, USA) was dissolved in DMSO containing 10% Pluronic acid (Molecular Probes, USA) to give a stock solution which was diluted in assay buffer supplemented with 5 mM probenicid (Sigma, Aldrich NV, Belgium) to give a final concentration of 2 μM. c) 384-Well Plates • Black 384 well plate black/clear plates, PDL pre-coated (Corning, Incorporated, USA) d) Calcium Flux Measurement • A Functional drug screening system (FDSS, Hamamatsu) was used to measure intracellular free-calcium flux signals. Method
Monolayers of hα7-wt nAChR-expressing GH4C1 cells were grown in multi-well plates, in particular black-sided, transparent bottomed 384 well plates coated with poly-D-lysine for 24 hours prior to loading with a fluorescent calcium indicator, in a particular embodiment loading with fluo-4AM for up to 120 minutes.
PAM activity was detected in real time by applying the compound to be tested to the loaded cells along with a α7 nicotinic receptor agonist during constant monitoring of the cellular calcium mobilization by fluorescence in a FDSS. Compounds giving peak fluorescent responses greater than the response due to agonist alone, were considered to be α7 nAChR PAM's. In a particular embodiment, the α7 nicotinic receptor agonist was choline, a more particular embodiment choline applied at a sub-maximal concentration of 100 μM. In a further setting of the present invention the compounds to be tested were applied prior to the α7 nicotinic receptor agonist, in a particular embodiment up to 10 minutes prior to the agonist.
A control response to choline was calculated on each plate from the difference in peak in fluorescence in wells receiving either choline or assay buffer alone. Compounds of the present invention were tested at a concentration range from 0.01 μM to 30 μM. Compounds were considered to have an interesting activity when they potentiated the choline signal at least with 200% when tested at a concentration of 30 μM (the efficacy of 100 μM choline was defined as 100% in the absence of a PAM).
EC50 values (potency), maximal effect (% efficacy), and Hill slopes were estimated by fitting the sigmoidal equation to the data using GraphPad Prism (GraphPad Software, Inc., San Diego, Calif.). An EC50 (or pEC50) was determined as a concentration relating to half the maximal effect, when a clear sigmoidal curve with top plateau was obtained.

hα7-wt nAChR [2] = target: T1, hα7-wt nAChR; test: Whole-cell voltage-clamp recording, PAM type classification; type: cell-based; design: key: Type 1 compounds enhance the effect size of the current elicited by 1 mM choline but minimally alter the kinetics of the receptor.; Type 2 compounds enhance the effect size of the current elicited by 1 mM choline while reducing the rate and/or the extent of desensitization.; Type 3 compounds enhance the effect size of the current elicited by 1 mM choline. When tested at higher concentrations up to 10 μM they completely inhibit desensitization, in particular a 1 mM choline application of 250 milliseconds.; Type 4 compounds allow for an initial desensitization of the receptor followed by a re-opening of the receptor during agonist application; settings: qualitative kinetic properties; 1 mM choline; hα7-wt nAChR-expressing GH4C1 cells
Method: The compounds of the present invention are classified as type 1-4, based on qualitative kinetic properties, as determined by whole-cell voltage-clamp recordings. This classification is based on the effect of an α7 PAM compound, as described hereinbefore, on the signal elicited by an agonist application. In particular, said agonist is choline at a concentration of 1 mM. In a preferred experimental setting, said α7 PAM compound and choline are simultaneously applied to the cell, as described hereinafter. Desensitization is defined as the closure of the receptor upon activation during the application of the agonist in whole-cell voltage-clamp electrophysiology measurements seen as the reduction of the […] current after initial activation by the agonist.
The definition of the PAM types 1-4 is described hereinafter: • Type 1 compounds enhance the effect size of the current elicited by 1 mM choline but minimally alter the kinetics of the receptor. In particular, the rate and the extent of desensitization, elicited by the agonist, is not affected. The compound-modulated response to 1 mM choline, therefore, is a close to linear scaling of the 1 mM choline response in absence of the α7 PAM compound. • Type 2 compounds enhance the effect size of the current elicited by 1 mM choline while reducing the rate and/or the extent of desensitization. • Type 3 compounds enhance the effect size of the current elicited by 1 mM choline. […] At low-potency concentrations of the α7 PAM compound, the agonist-induced activation, which is followed by desensitization, can still be separated from the compound-induced re-opening as an initial inward current-maximum. At higher potency concentrations of the α7 PAM compound, the re-opening occurs faster than the closure due to desensitization so that the initial current-maximum disappears.
The compounds of the present invention also have a potentiating effect on the response to choline when measured by whole-cell voltage-clamp electrophysiology in GH4C1 cells stably over-expressing the human wild-type α7 receptor, as described hereinafter.
Whole-Cell Voltage-Clamp Recording
Whole-cell voltage-clamp recording from mammalian cells has provided a powerful means of assessing the function of membrane proteins thought to be subunits of ligand-gated ion channels. Activation of such proteins by endogenous or exogenous ligands causes opening of a pore associated with the receptor through which ions flow down their electrochemical gradient. In the case of the hα7-wt nAChR-expressing GH4C1 recombinant cell line the preferential permeability to calcium of this receptor means that calcium flows into the cell upon activation by ACh, choline and other nicotinic ligands giving rise to a calcium current. Since this receptor rapidly desensitizes in the presence of an agonist it is important that an application system is used which is capable of very rapid switching of solutions (<100 ms) to prevent partial or full desensitisation of receptor responses coincident with the time of agonist application. Consequently, a second convenient technique to assess the enhancement of nicotinic efficacy is whole-cell voltage-clamp recording from hα7-wt nAChR-expressing GH4C1 cells coupled with a rapid-application system.
• The external recording solution consisted of 152 mM NaCl, 5 mM KCl, 1 mM MgCl2, 1 mM Calcium, 10 mM HEPES; pH 7.3. The internal recording solution consisted of 140 mM CsCl, 10 mM HEPES, 10 mM EGTA, 1 mM MgCl2, pH 7.3. • b) Patch-clamp recording was carried out using a Patch-clamp amplifier (Multiclamp 700A, Axon Instruments, CA, USA). The membrane potential of hα7-wt nAChR-expressing GH4C1 cells was voltage-clamped in the whole cell configuration (Hamill et al, 1981) with a borosilicate glass electrode of 1.5-3 MΩ tip resistance when filled with the internal recording solution. […]

EC50 (hα7-wt nAChR [1]) [nM]	melting point [°C]	Structure (SMILES)	PAM_type (hα7-wt nAChR [2])
1950	133.85	CC[C@H](O)Cn1nc(Nc2ccc(F)c(C)c2)nc1-c1ccnc(C)c1 [Compound E19, (S)-1-[3-(4-Fluoro-3-methyl-phenylamino)-5-(2-methyl-pyridin-4-yl)-[1,2,4]triazol-1-yl]-butan-2-ol]	2
468		CC[C@H](O)Cn1nc(Nc2cccc(Cl)c2F)nc1-c1cc(C)nc(C)c1 [Compound E35, (S)-1-[3-(3-Chloro-2-fluoro-phenylamino)-5-(2,6-dimethyl-pyridin-4-yl)-[1,2,4]-triazol-1-yl]-butan-2-ol HCl salt]	
209	134.6	CCCCC(O)Cn1nc(Nc2ccc(F)c(F)c2)nc1-c1cc(C)nc(C)c1 (single isomer, unassigned; (-)) [Compound E4, (−)-1-[3-(3,4-Difluoro-phenylamino)-5-(2,6-dimethyl-pyridin-4-yl)-[1,2,4]triazol-1-yl]-hexan-2-ol]	
1290		CCC(O)Cn1nc(Nc2cccc(Cl)c2)nc1-c1cc(C)nc(C)c1 (single isomer, unassigned) [Compound E18]	1
204	135	CCCCC(O)Cn1nc(Nc2ccc(F)c(F)c2)nc1-c1cc(C)nc(C)c1 (single isomer, unassigned; (+)) [Compound E5, (+)-1-[3-(3,4-Difluoro-phenylamino)-5-(2,6-dimethyl-pyridin-4-yl)-[1,2,4]triazol-1-yl]-hexan-2-ol]	2
676	133.1	CCCC(O)Cn1nc(Nc2ccc(F)c(F)c2)nc1-c1ccnc(C)c1 (single isomer, unassigned) [Compound E15]	1
2090		CC[C@H](O)Cn1nc(Nc2cc(F)cc(OC)c2)nc1-c1ccnc(C)c1 [Compound E36, (S)-1-[3-(3-Fluoro-5-methoxy-phenylamino)-5-(2-methyl-pyridin-4-yl)-[1,2,4]triazol-1-yl]butan-2-ol HCl salt]	2
589	166.04	CC[C@H](O)Cn1nc(Nc2ccc(F)c(F)c2)nc1-c1cc(C)nc(C)c1 [Compound E1, (S)-1-[3-(3,4-Difluoro-phenylamino)-5-(2,6-dimethyl-pyridin-4-yl)-[1,2,4]triazol-1-yl]-butan-2-ol]	2
1200	144.31	CCC(O)Cn1nc(Nc2cccc(Cl)c2)nc1-c1ccnc(C)c1 (stereo not shown) [Compound E17]	2
	137.96	CCCCC(O)Cn1nc(Nc2ccc(F)c(F)c2)nc1-c1ccnc(C)c1 (racemic) [Compound E3, 1-[3-(3,4-Difluoro-phenylamino)-5-(2-methyl-pyridin-4-yl)-[1,2,4]triazol-1-yl]-hexan-2-ol]	
214	120.54	CCC(O)Cn1nc(Nc2cc(OC)cc(C(F)(F)F)c2)nc1-c1ccnc(C)c1 (single isomer, unassigned) [Compound E20]	4
316	139.48	CCCC(O)Cn1nc(Nc2ccc(F)c(F)c2)nc1-c1cc(C)nc(C)c1 (single isomer, unassigned) [Compound E14]	2
513		CC[C@H](O)Cn1nc(Nc2ccc(F)c(F)c2F)nc1-c1cc(C)nc(C)c1 [Compound E32, (S)-1-[5-(2,6-Dimethyl-pyridin-4-yl)-3-(2,3,4-trifluoro-phenylamino)-[1,2,4]triazol-1-yl]-butan-2-ol]	2
550		CC[C@H](O)Cn1nc(Nc2ccc(F)c(F)c2F)nc1-c1ccnc(C)c1 [Compound E31, (S)-1-[5-(2-Methyl-pyridin-4-yl)-3-(2,3,4-trifluoro-phenylamino)-[1,2,4]-triazol-1-yl]-butan-2-ol]	2
851		CCCC(O)Cn1nc(Nc2cccc(Cl)c2)nc1-c1cc(C)nc(C)c1 (single isomer, unassigned) [Compound E24]	2
437	237.44	CC[C@H](O)Cn1nc(Nc2ccc(F)c(F)c2F)nc1-c1cc(C)nc(C)c1.Cl [Compound E33, (S)-1-[5-(2,6-Dimethyl-pyridin-4-yl)-3-(2,3,4-trifluoro-phenylamino)-[1,2,4]triazol-1-yl]-butan-2-ol HCl salt]	
832		CCC(O)Cn1nc(Nc2cccc(Cl)c2)nc1-c1cc(C)nc(C)c1 (single isomer, unassigned) [Compound E21]	2
316		CC[C@H](O)Cn1nc(Nc2cccc(Cl)c2F)nc1-c1cc(C)nc(C)c1 [Compound E34, (S)-1-[3-(3-Chloro-2-fluoro-phenylamino)-5-(2,6-dimethyl-pyridin-4-yl)-[1,2,4]triazol-1-yl]-butan-2-ol]	2

Structure (SMILES)	EC50 (hα7-wt nAChR [1]) [nM]	melting point [°C]	PAM_type (hα7-wt nAChR [2])
CC[C@H](O)Cn1nc(Nc2cc(F)cc(OC)c2)nc1-c1cc(C)nc(C)c1.Cl [Compound E37, (S)-1-[5-(2,6-Dimethyl-pyridin-4-yl)-3-(3-fluoro-5-methoxy-phenylamino)-[1,2,4]triazol-1-yl]-butan-2-ol HCl salt]	1580		2
